Assay results from US20100179188A1, “NITROXIDE RADICAL AS TREATMENT FOR NEURODEGENERATION” (Office of Technology Transfer, NIH, priority 2007, published 2010).
“Also recorded” adds a separate entry of the source.

What was measured:
[1] = test system: IRP2−/− mice; assay: Observation of other signs of neurodegeneration in IRP2−/− mice; format: in vivo; conditions: IRP2−/− mice supplemented with Tempo1
Description: Background on Experimental Model: In the following examples, IRP2−/− mice are used to model neurodegerative disease. The neurodegeneration of IRP2−/− animals is characterized by progressive loss of motor capabilities, for example as measured in mice by performance on hang-tests, rotarod rotating drum treadmill testing, balance beams, climbing pole tests, allelerods, footprints, decreased grooming activities and gait abnormalities in adult animals. The neurodegeneration of IRP2−/− animals progresses slowly as animals age.
Diet: The mice were weaned 3-4 weeks after their birth. Immediately after weaning, mice were maintained on either a Tempo1-supplemented or control diet. In the Tempo1-supplemented diet, powdered Tempo1 was uniformly mixed with bacon-flavored mouse chow by a “cold press” technique (Bio-Serv, Frenchtown, N.J., USA) at a concentration of 10 mg/g of food. Bacon-flavored chow without Tempo1 was used as the control diet.

[2] = target: T1, purified holo-IRP1 (Homo sapiens, UniProt P21399); assay: Aconitase activity of purified holo-IRP1, coupled solution assay; format: biochemical; conditions: purified protein, room air up to 2 h or 3 h at 37° C., vs control samples
T1 sequence (P21399 1-889): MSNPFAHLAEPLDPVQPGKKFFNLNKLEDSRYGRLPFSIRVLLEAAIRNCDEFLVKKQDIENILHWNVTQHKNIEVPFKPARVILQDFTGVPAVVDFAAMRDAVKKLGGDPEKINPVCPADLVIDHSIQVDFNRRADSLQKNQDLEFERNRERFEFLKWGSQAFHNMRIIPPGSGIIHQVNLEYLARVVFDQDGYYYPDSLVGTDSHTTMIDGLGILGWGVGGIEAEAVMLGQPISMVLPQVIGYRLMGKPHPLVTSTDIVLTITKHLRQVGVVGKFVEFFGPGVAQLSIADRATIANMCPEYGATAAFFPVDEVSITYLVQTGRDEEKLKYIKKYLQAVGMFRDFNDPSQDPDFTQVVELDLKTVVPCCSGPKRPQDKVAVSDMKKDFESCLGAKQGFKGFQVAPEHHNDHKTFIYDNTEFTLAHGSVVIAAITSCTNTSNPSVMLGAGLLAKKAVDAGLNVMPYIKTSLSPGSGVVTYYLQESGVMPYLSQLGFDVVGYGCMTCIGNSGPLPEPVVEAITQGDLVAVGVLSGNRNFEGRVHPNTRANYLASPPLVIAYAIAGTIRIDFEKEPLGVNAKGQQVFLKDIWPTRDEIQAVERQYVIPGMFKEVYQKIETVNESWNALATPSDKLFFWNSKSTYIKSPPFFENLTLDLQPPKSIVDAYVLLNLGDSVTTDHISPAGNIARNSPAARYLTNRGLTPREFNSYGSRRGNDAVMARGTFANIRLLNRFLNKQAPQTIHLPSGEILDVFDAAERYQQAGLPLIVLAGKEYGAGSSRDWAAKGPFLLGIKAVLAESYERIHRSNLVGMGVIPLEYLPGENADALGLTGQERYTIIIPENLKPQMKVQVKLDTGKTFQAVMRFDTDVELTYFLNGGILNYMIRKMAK

[3] = target: T2, mitochondrial aconitase (Mus musculus, UniProt Q99KI0); assay: In-gel aconitase assay in mouse embryonic fibroblasts, mitochondrial aconitase; format: cell-based
T2 construct: endogenous in cells; host or cells: mouse embryonic fibroblasts
T2 sequence (Q99KI0 28-780): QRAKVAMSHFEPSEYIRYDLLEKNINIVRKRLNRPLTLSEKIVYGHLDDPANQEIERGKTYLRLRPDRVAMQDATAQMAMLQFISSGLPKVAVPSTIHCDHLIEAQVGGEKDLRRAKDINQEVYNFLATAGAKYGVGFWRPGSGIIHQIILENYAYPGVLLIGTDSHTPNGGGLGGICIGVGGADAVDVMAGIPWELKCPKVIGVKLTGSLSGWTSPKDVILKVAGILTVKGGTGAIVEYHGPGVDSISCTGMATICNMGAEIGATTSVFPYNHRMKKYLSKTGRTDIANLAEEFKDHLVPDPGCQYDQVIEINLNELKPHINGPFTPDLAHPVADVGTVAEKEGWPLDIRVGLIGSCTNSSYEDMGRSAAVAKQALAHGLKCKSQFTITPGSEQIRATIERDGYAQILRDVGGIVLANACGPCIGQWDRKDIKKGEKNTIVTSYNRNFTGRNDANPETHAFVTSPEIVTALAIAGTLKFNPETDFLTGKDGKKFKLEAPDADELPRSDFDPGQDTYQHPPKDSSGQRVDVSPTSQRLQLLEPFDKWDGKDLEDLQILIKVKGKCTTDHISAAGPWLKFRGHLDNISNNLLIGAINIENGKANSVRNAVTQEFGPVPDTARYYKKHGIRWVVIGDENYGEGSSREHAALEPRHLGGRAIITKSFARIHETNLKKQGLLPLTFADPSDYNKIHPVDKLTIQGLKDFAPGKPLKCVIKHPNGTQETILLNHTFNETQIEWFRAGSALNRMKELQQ
Method: Cells: Embryonic fibroblasts of 13-day old embryos were isolated from wild type, IRP1−/− mice and IRP2−/− mice as described in LaVaute et al. supra. Myc-tagged HEK 293 Tet-on cell line, in which IRP2 expression was inducible, was prepared and cultured as described Bourdon et al., Blood Cells Mol Dis, 31, 247-255 (2003). Erythroblasts were harvested from bone marrow and purified as described in Cooperman et al., Blood, 106, 1084-1091 (2005).
Aconitase assay: Aconitase activity gels for human lysates were performed as described in Tong et al., infra, and aconitase activity gels for mouse lysate were performed with the following modifications. […] Spectral aconitase activity was measured by following the method of Fillebeen et al., infra, using cis-aconitate as the substrate.
To determine whether the effect of Tempo1 on IRP1 activity was kinetically consistent with oxidative disassembly of the iron sulfur cluster, the effect of Tempo1 on aconitase activity was compared to that of the iron chelator, deferiprone (DFO), which activates IRE-binding activity of IRP1 by limiting de novo synthesis and repair of the iron sulfur cluster in IRP1. […] Recovery of aconitase activity was assessed in wild type and IRP2−/− cells.

CC1(C)CC(O)CC(C)(C)N1[O] [Tempo1]
other signs of neurodegeneration (movement disorders, tremor, abnormalities of gait and grooming) [1]: did not develop | loss of aconitase activity [2]: comparable losses; also recorded: did not enhance | mitochondrial aconitase activity [3]: does not substantially affect
